# Like-named read-outs stand apart in the source and are kept apart here.
# Experiments:
# [1] = target: PRMT1 (Homo sapiens, UniProt Q99873); settings: Table 1, predicted target PRMT1
# [2] = target: SLC22A6 (Homo sapiens, UniProt Q4U2R8); test: in vitro transporter assay, SLC22A6; settings: Table 1, predicted target SLC22A6
# [3] = target: PDE3A (Homo sapiens, UniProt Q14432); test: safety panel assay, PDE3A; type: biochemical; settings: Table 2, PDE3A; accurate to ±20%
# [4] = target: ADORA3 (Homo sapiens, UniProt P0DMS8); settings: Table 2, ADORA3; accurate to ±20%
# [5] = target: OPRM1 (Homo sapiens, UniProt P35372); test: safety panel assay, OPRM1; type: binding; settings: Table 2, OPRM1 (OPRM); accurate to ±20%
# [6] = target: T1, SLCO2B1 (Homo sapiens, UniProt O94956); test: in vitro transporter inhibition, SLCO2B1; type: biochemical; settings: Table 2, SLCO2B1; accurate to ±20%
# T1 sequence (O94956 1-709): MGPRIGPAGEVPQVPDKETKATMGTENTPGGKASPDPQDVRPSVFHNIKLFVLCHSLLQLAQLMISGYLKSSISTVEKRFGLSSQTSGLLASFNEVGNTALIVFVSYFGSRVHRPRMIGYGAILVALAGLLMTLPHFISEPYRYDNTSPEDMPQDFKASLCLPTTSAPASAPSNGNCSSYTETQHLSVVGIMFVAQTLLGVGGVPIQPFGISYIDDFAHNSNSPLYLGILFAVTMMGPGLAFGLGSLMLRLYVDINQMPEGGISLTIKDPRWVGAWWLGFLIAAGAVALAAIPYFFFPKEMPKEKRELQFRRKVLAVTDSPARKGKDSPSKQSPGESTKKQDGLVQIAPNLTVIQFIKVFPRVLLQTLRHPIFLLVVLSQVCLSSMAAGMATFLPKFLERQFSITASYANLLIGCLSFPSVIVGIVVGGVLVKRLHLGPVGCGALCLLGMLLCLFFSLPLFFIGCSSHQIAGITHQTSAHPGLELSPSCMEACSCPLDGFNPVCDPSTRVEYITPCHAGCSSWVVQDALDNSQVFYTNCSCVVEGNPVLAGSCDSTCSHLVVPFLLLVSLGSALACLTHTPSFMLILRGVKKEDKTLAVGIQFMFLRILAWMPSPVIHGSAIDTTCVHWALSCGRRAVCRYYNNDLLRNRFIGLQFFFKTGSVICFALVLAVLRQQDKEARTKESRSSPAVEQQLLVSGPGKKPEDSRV
# [7] = target: T2, ADRA1A (Homo sapiens, UniProt P35348); settings: Table 2, ADRA1A; accurate to ±20%
# T2 sequence (P35348 1-466): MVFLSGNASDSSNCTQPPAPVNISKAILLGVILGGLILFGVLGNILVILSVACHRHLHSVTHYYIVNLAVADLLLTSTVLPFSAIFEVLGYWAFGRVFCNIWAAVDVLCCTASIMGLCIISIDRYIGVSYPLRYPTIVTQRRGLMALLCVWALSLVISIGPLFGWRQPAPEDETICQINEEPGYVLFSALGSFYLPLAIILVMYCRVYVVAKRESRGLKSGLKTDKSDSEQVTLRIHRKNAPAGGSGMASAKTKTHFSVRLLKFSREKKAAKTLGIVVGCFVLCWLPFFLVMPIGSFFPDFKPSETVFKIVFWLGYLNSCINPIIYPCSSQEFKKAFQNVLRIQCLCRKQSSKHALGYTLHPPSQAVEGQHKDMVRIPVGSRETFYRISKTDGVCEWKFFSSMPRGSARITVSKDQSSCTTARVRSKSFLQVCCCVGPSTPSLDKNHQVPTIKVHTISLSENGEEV
# [8] = target: DRD1 (Homo sapiens, UniProt P21728); type: binding; settings: Table 2, DRD1; accurate to ±20%
# [9] = target: CHRM2 (Homo sapiens, UniProt P08172); settings: Table 2, CHRM2; accurate to ±20%
# [10] = target: PDE4D (Homo sapiens, UniProt Q08499); test: in vitro assay, PDE4D; type: biochemical; settings: Table 2, PDE4D; accurate to ±20%
# [11] = target: GABRA1 (Homo sapiens, UniProt P14867); test: safety panel assay, GABRA1; type: binding; settings: Table 2, GABRA1; accurate to ±20%
# [12] = tested on: BioMAP Diversity PLUS panel; test: BioMAP Diversity PLUS panel of cell-based systems
# [13] = target: ACHE (Homo sapiens, UniProt P22303); settings: Table 2, ACHE; accurate to ±20%
# [14] = target: HRH3 (Homo sapiens, UniProt Q9Y5N1); settings: Table 2, HRH3; accurate to ±20%
# [15] = target: KCNH2 (Homo sapiens, UniProt Q12809)
# [16] = target: SLC18A2 (Homo sapiens, UniProt Q05940); test: transporter inhibition, SLC18A2; type: biochemical; settings: Table 2, SLC18A2; accurate to ±20%
# [17] = target: T3, PTGS2 (Homo sapiens, UniProt P35354); test: safety panel assay, PTGS2; type: biochemical; settings: Table 2, PTGS2; accurate to ±20%
# T3 sequence (P35354 18-604): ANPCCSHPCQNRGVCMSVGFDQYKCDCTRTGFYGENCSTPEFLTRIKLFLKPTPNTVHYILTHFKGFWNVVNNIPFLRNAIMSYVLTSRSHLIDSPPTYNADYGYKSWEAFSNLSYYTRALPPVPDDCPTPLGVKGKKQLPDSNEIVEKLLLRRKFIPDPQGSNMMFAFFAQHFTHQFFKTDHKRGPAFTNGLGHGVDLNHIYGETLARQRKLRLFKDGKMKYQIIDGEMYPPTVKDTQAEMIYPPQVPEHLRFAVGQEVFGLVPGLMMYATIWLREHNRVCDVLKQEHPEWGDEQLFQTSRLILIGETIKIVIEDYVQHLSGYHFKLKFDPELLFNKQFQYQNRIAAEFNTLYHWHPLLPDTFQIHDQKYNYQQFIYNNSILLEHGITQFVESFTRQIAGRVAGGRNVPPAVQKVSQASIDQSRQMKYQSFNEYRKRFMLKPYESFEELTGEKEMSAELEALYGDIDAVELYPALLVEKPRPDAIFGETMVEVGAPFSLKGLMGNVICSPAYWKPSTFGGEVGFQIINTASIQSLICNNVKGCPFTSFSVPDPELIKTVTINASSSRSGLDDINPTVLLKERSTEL
# [18] = target: PTGS1 (Homo sapiens, UniProt P23219); settings: Table 2, PTGS1; accurate to ±20%
# [19] = target: DRD3 (Homo sapiens, UniProt P35462); settings: Table 2, DRD3; accurate to ±20%
# [20] = target: T4, CHRM1 (Homo sapiens, UniProt P11229); settings: Table 2, CHRM1; an agonist effect was observed; accurate to ±20%
# T4 sequence (P11229 1-460): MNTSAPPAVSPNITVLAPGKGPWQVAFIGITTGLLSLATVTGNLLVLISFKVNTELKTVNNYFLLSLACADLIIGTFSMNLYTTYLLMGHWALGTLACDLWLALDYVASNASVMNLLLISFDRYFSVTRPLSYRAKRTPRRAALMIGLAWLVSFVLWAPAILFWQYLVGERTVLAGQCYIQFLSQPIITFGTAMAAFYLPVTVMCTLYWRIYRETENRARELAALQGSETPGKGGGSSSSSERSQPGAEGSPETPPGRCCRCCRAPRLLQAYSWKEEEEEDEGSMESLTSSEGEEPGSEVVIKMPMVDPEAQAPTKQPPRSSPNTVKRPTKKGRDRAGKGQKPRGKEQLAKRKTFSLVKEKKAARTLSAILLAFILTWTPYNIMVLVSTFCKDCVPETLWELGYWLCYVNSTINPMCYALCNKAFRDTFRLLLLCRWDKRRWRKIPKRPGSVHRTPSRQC
# [21] = target: SLC6A3 (Homo sapiens, UniProt Q01959); test: safety panel assay, SLC6A3; type: biochemical; settings: Table 2, SLC6A3; accurate to ±20%
# [22] = target: SLC6A2 (Homo sapiens, UniProt P23975); settings: Table 2, SLC6A2; accurate to ±20%
# [23] = target: COMT (Homo sapiens, UniProt P21964); test: in vitro inhibition of COMT
# [24] = target: KDM4C (Homo sapiens, UniProt Q9H3R0); test: in vitro assay, KDM4C; type: biochemical; settings: Table 2, KDM4C; accurate to ±20%
# [25] = target: TY3H (Homo sapiens, UniProt P07101); test: in vitro assay, TY3H; type: biochemical; settings: Table 2, TY3H; accurate to ±20%
# [26] = target: ALOX5 (Homo sapiens, UniProt P09917); test: in vitro assay, ALOX5; type: biochemical
# [27] = Pharmacokinetics in rats after i.v. and oral administration; settings: for Cmax: 10 mg/kg, oral 10 mg/kg
# [28] = target: FTO (Homo sapiens, UniProt Q9C0B1); test: in vitro assay, FTO; type: biochemical; settings: Table 2, FTO; accurate to ±20%
# [29] = Madin-Darby canine kidney permeability assay; settings: dog, MDCK
# Chain of DRD1 (P21728 whole entry, species assumed): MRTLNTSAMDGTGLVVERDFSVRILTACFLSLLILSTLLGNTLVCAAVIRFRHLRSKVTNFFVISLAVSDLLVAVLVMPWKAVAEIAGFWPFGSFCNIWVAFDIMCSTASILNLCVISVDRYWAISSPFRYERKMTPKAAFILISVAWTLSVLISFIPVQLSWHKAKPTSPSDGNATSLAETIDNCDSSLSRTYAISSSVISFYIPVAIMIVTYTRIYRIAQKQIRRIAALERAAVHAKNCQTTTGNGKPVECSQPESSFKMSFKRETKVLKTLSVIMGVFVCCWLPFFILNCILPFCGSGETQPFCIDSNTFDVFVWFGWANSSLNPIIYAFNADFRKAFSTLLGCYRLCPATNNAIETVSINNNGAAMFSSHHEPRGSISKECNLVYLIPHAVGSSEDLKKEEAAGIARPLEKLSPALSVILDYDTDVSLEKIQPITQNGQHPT
# Chain of CHRM2 (P08172 whole entry, species assumed): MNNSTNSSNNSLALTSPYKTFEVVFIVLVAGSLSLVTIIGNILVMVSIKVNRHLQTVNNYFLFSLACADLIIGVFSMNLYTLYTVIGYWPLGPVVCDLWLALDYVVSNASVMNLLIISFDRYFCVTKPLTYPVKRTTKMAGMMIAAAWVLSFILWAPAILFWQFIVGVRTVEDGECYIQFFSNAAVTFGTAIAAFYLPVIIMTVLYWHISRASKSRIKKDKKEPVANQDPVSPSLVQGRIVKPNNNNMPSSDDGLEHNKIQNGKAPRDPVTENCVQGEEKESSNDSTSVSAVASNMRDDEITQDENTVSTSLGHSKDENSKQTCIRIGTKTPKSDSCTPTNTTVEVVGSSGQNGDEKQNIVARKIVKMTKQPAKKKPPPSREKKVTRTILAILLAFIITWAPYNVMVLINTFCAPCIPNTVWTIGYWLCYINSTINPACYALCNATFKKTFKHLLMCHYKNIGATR
# Chain of COMT (P21964 whole entry): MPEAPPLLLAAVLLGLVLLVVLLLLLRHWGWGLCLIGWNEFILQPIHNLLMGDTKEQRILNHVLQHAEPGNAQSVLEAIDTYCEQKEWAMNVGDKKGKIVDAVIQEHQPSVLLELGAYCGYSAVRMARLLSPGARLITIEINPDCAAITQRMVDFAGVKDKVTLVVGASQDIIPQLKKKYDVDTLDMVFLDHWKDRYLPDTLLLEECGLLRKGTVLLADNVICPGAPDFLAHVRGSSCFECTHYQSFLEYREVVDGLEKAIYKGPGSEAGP
# Chain of SLC18A2 (Q05940 whole entry, species assumed): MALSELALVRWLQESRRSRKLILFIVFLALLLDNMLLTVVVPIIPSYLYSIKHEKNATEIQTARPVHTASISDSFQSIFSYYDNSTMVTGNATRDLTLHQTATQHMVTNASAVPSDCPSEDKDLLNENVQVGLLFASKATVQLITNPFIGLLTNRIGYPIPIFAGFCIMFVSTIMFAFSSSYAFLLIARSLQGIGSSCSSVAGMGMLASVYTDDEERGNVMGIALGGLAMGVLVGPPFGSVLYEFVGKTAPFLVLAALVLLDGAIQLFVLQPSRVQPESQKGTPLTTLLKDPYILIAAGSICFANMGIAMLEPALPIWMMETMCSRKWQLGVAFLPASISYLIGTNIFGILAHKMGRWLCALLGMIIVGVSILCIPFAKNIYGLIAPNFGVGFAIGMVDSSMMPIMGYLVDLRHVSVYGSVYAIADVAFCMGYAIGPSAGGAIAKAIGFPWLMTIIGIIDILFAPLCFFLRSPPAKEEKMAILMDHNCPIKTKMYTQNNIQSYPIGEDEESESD
# Chain of OPRM1 (P35372 whole entry, species assumed): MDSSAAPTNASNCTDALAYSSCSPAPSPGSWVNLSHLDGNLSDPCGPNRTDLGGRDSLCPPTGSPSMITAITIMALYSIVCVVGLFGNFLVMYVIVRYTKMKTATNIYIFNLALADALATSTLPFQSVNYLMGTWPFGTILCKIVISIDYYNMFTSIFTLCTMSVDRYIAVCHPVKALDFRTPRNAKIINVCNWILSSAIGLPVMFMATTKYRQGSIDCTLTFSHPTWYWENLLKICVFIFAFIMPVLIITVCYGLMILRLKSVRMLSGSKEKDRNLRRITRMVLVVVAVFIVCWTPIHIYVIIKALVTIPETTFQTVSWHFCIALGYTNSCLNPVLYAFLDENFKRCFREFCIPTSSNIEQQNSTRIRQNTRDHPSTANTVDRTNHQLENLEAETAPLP
# Chain of KCNH2 (Q12809 whole entry): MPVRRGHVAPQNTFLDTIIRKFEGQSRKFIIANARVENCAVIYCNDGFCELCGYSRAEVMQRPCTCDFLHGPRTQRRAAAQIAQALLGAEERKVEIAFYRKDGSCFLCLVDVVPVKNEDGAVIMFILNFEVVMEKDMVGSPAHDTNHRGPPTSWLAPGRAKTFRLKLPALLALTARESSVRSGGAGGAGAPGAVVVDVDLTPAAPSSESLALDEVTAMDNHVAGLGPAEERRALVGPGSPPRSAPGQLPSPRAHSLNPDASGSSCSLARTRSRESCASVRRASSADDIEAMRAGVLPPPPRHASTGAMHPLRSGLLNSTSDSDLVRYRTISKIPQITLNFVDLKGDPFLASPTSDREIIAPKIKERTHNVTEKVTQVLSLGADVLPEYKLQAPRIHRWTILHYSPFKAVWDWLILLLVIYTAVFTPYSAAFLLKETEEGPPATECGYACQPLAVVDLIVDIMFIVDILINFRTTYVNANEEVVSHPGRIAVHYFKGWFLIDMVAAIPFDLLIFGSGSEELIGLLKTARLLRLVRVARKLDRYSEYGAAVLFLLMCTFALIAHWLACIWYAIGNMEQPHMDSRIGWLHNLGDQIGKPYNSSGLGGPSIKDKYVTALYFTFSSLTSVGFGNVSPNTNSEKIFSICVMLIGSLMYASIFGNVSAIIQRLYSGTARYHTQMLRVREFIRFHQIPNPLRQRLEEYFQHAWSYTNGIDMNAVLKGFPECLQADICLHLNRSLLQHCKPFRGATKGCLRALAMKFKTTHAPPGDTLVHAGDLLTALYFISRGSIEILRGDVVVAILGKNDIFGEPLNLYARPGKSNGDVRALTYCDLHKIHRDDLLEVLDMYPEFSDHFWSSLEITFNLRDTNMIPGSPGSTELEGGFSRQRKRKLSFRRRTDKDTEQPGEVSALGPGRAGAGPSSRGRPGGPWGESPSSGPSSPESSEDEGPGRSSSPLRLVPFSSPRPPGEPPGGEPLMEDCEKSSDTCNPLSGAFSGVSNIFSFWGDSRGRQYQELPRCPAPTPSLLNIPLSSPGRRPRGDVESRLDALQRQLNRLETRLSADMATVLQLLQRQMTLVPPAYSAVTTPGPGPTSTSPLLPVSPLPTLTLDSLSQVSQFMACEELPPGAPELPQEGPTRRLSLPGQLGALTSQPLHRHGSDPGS
# Chain of ALOX5 (P09917 whole entry, species assumed): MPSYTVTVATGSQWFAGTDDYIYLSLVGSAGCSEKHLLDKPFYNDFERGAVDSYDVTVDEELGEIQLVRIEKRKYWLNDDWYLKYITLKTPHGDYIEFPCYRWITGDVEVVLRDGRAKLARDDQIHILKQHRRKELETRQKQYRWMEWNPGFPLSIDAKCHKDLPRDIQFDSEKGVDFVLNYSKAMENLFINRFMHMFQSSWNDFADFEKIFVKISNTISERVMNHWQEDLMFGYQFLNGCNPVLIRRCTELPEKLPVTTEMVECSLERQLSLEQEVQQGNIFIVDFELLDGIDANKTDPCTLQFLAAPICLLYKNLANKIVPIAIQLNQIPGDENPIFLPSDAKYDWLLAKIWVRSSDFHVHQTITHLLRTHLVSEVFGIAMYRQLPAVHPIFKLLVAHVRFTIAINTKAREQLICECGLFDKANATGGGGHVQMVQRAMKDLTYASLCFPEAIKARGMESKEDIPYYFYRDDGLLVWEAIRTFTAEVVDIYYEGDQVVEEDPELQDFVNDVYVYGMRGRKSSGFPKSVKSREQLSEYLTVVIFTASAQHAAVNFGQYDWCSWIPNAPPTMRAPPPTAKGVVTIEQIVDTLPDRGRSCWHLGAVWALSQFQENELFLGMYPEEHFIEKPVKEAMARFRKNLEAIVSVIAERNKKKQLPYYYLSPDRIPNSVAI
# Chain of DRD3 (P35462 whole entry, species assumed): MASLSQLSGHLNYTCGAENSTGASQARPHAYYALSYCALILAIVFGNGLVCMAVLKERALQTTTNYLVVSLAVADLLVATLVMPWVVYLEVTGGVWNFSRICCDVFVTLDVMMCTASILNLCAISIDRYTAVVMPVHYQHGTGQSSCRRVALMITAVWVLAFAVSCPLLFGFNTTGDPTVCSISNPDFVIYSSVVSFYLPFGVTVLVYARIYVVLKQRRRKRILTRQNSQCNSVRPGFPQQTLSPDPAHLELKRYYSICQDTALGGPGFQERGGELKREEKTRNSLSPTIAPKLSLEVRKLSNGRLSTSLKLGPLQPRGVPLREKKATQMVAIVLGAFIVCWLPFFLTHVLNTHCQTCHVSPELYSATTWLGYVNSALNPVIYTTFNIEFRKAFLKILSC
# Chain of ADORA3 (P0DMS8 whole entry, species assumed): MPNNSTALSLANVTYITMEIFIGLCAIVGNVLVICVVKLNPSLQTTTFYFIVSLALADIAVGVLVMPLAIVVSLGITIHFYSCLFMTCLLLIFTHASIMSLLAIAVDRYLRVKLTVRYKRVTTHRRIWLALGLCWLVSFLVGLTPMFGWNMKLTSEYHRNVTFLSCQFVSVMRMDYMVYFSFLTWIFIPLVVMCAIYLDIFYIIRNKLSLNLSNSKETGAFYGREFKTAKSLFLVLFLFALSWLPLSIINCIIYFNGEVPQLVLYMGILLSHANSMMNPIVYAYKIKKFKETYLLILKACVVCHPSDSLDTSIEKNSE
smiles,measurement,setting,value
"O=C([O-])c1c(Cl)c(Cl)c(Cl)c(Cl)c1-c1c2cc(Br)c(=O)c(Br)c-2oc2c(Br)c([O-])c(Br)cc12.[Na+].[Na+] [D&C Red No. 28, Phloxine B]",Ki/IC50,[1],700 nM
same,Ki/IC50,[2],64 nM
same,Ki/IC50 Or EC50,[3],130 nM
same,Ki/IC50 Or EC50,[4],480 nM
same,Ki/IC50 Or EC50,[5],820 nM
same,Ki/IC50 Or EC50,[6],600 nM
same,Ki/IC50 Or EC50,[7],480 nM
same,Ki/IC50 Or EC50,[8],590 nM
same,Ki/IC50 Or EC50,[9],680 nM
same,Ki/IC50 Or EC50,[10],940 nM
"O=C([O-])C1=NN(c2ccc(S(=O)(=O)[O-])cc2)C(=O)C1N=Nc1ccc(S(=O)(=O)[O-])cc1.[Na+].[Na+].[Na+] (stereo not drawn) [FD&C Yellow No. 5 (Tartrazine), Tartrazine]",Ki/IC50 Or EC50,[5],16000 nM
same,Ki/IC50 Or EC50,[11],13000 nM
same,Ki/IC50 Or EC50,[8],23000 nM
same,activity in the BioMAP cell-based systems,"[12]; 1.1, 3.3, 10, 30 μM",no measurable activity
CN(C)c1ccc2nc3ccc(=[N+](C)C)cc-3sc2c1 [Methylene Blue],Ki/IC50 Or EC50,[13],90 nM
same,Ki/IC50 Or EC50,[14],880 nM
same,Ki/IC50 Or EC50,[9],190 nM
same,Ki/IC50 Or EC50,[15]; human,0.090 0.19 0.88 27.5 μM
CCCCCCCC/C=C\CCCCCCCC(=O)O [Oleic acid],Ki/IC50 Or EC50,[16],4700 nM
same,Ki/IC50 Or EC50,[17],3500 nM
same,Ki/IC50 Or EC50,[18],6700 nM
CC(=O)[O][Hg][c]1ccccc1 [Phenylmercuric acetate],Ki/IC50 Or EC50,[19],24 nM
same,Ki/IC50 Or EC50,[16],360 nM
same,Ki/IC50 Or EC50,[20],8100 nM
same,Ki/IC50 Or EC50,[21],1800 nM
same,Ki/IC50 Or EC50,[22],1700 nM
same,Ki/IC50 Or EC50,[8],2200 nM
same,Ki/IC50 Or EC50,"[15]; Table 2, KCNH2, accurate to ±20%",6.2 µM
CCCOC(=O)c1cc(O)c(O)c(O)c1 [Propyl gallate],IC50,[23],15 nM
same,Ki/IC50,"[23]; Table 1, predicted target COMT",15 nM
same,Ki/IC50 Or EC50,[24],39000 nM
same,Ki/IC50 Or EC50,[25],1900 nM
same,Ki/IC50 Or EC50,[17],7200 nM
same,IC50,[26],430 nM
same,Ki/IC50 Or EC50,"[26]; Table 2, ALOX5, accurate to ±20%",430 nM
same,half-life,"[27]; rat, blood, iv, 1 mg/kg",4.9 h
same,Cmax,"[27]; rat, blood, po, Oral Cmax, rats",5 nM
same,i.v. AUC 0–24 (d.n.),"[27]; rats, i.v. 1 mg/kg, dose normalized",6908 nM-hour
same,Cmax,"[27]; read-out: Oral Cmax, rats, blood",< 8.9 nM
same,Ki/IC50 Or EC50,[28],3000 nM
same,Papp,[29],11.7 ×10⁻⁶ cm/s
same,effect on proliferation,"[12]; B and T cells, coronary artery smooth muscle cells, endothelial cells, fibroblasts, at 10 or 30 μM",antiproliferative
